PMC11851451 (2025)

How the values were obtained:
[1] = test system: TTAA hairpin (ESI-MS, CD) (DNA, hairpin) CGTTAAGCTTTCTTAACG; test: competition ESI-MS; details: NH4+ 100 mM (ammonium acetate); 10% methanol, pH 6.8; AATT and TTAA 10 μM each, compound 20 μM
[2] = test system: TTAA hairpin (ESI-MS, CD) (DNA, hairpin) CGTTAAGCTTTCTTAACG; test: circular dichroism titration; details: Na+ 100 mM; 50 mM Tris-HCl, 1 mM EDTA, pH 7.4, 25 °C; DNA 5 μM
[3] = test system: d(5'-GCTGCGTTAACGCAGC-3')2 (DNA, duplex) GCTGCGTTAACGCAGC; test: X-ray crystallography, low resolution; details: antiparallel stacked dimer in minor groove; not deposited
[4] = test system: AATT hairpin, 5'-biotin (SPR) (DNA, hairpin) CGAAATTGCCTCTGCAATTCG; test: biosensor SPR, steady-state one-site fit; details: Na+ 100 mM (Table 1 note 10 mM), 50 mM Tris-HCl, 1 mM EDTA
[5] = test system: AATT hairpin (ESI-MS, CD) (DNA, hairpin) CGAAATTGCCTCTGCAATTCG; test: competition ESI-MS; details: NH4+ 100 mM (ammonium acetate); 10% methanol, pH 6.8; AATT and TTAA 10 μM each, compound 20 μM
[6] = test system: d(5'-GCTGCGTTAACGCAGC-3')2 (DNA, duplex) GCTGCGTTAACGCAGC; test: X-ray crystallography, 1.5 Å; details: Ca2+ 600 mM (CaCl2, well); HEPES, PEG 400; antiparallel stacked dimer in minor groove
[7] = test system: TATA hairpin, 5'-biotin (SPR) (DNA, hairpin) CCTATAGTTTTCTATAGG; test: biosensor SPR; details: Na+ 100 mM (Table 1 note 10 mM); printed as 'Very weak binder'; 50 mM Tris-HCl, 1 mM EDTA, 0.05% P20, pH 7.4; up to 1000 nM
[8] = test system: TTAA hairpin, 5'-biotin (SPR) (DNA, hairpin) CGTTAAGCTTTCTTAACG; test: biosensor SPR, steady-state fit; details: Na+ 100 mM (Table 1 note 10 mM); 50 mM Tris-HCl, 1 mM EDTA, 0.05% P20, pH 7.4
[9] = test system: AATT hairpin, 5'-biotin (SPR) (DNA, hairpin) CGAAATTGCCTCTGCAATTCG; test: biosensor SPR, one-site kinetic fit; details: Na+ 100 mM (Table 1 note 10 mM); 50 mM Tris-HCl, 1 mM EDTA, 0.05% P20, pH 7.4
[10] = test system: TATA hairpin, 5'-biotin (SPR) (DNA, hairpin) CCTATAGTTTTCTATAGG; test: biosensor SPR, steady-state fit; details: Na+ 100 mM (Table 1 note 10 mM); 50 mM Tris-HCl, 1 mM EDTA, 0.05% P20, pH 7.4
[11] = test system: AATT hairpin, 5'-biotin (SPR) (DNA, hairpin) CGAAATTGCCTCTGCAATTCG; test: biosensor SPR, one-site fit; details: Na+ 100 mM (Table 1 note 10 mM); 50 mM Tris-HCl, 1 mM EDTA, 0.05% P20, pH 7.4
[12] = test system: TTAA hairpin, 5'-biotin (SPR) (DNA, hairpin) CGTTAAGCTTTCTTAACG; test: biosensor SPR, steady-state two-site fit; details: Na+ 100 mM; 50 mM Tris-HCl, 1 mM EDTA, pH 7.4; site 1 of 2; KA2 5.5 × 10^6; Table 1 KA 6.9 × 10^6
[13] = test system: TATA hairpin, 5'-biotin (SPR) (DNA, hairpin) CCTATAGTTTTCTATAGG; test: biosensor SPR, steady-state two-site fit; details: Na+ 100 mM; 50 mM Tris-HCl, 1 mM EDTA, pH 7.4; site 1 of 2; KA2 2.6 × 10^6; Table 1 KA 4.2 × 10^6

SMILES	binding [1]	binding [2]	KA ([4]; 0.05% P20, pH 7.4)	binding [5]	KA [8]	other results
N=C(N)c1ccc2[nH]c(-c3ccc(-c4ccc(C(=N)N)o4)o3)nc2c1	yes	yes	2.1e+06 M⁻¹	–	–	binding [3]: yes
N=C(N)c1ccc2[nH]c(-c3ccc(-c4ccc(C(=N)N)s4)o3)nc2c1	yes	yes	6.2e+06 M⁻¹	weak	–	binding [6]: yes
N=C(N)c1ccc2[nH]c(-c3ccc(-c4ccc(C(=N)N)s4)s3)nc2c1	weak	yes	–	yes	1.6e+06 M⁻¹	binding [7]: weak; KA [9]: 2.4e+08 M⁻¹
N=C(N)c1ccc2cc(-c3ccc(-c4ccc(C(=N)N)o4)o3)[nH]c2c1	–	yes	7.3e+06 M⁻¹	–	–	–
N=C(N)c1ccc2cc(-c3ccc(-c4ccc(C(=N)N)o4)s3)[nH]c2c1	–	–	6.7e+07 M⁻¹	–	2.8e+06 M⁻¹	KA [10]: 5.2e+06 M⁻¹
N=C(N)c1ccc2cc(-c3ccc(-c4ccc(C(=N)N)s4)o3)[nH]c2c1	–	yes	6.5e+06 M⁻¹	–	–	–
N=C(N)c1ccc2cc(-c3ccc(-c4ccc(C(=N)N)s4)s3)[nH]c2c1	–	–	–	–	–	KA [11]: 1.5e+08 M⁻¹; KA1 [12]: 8.8e+06 M⁻¹; KA1 [13]: 6.9e+06 M⁻¹
N=C(N)c1ccc2nc(-c3ccc(-c4ccc(C(=N)N)o4)s3)[nH]c2c1	weak	yes	–	yes	1e+06 M⁻¹	KA [10]: 700000 M⁻¹; KA ([4]; 0.05% P20, pH 7.4 buffer, text b17 prints 3.0 × 10^7): 3.5e+07 M⁻¹
